In ChEMBL document CHEMBL1153818, “Integration of ligand and structure-based virtual screening for the identification of the first dual targeting agent for heat shock protein 90 (Hsp90) and tubulin” (J Med Chem, 2009):
Active and inactive are the calls of the source. No cut-off for these calls is given here.

Key:
MCF7 [1] = assay: Induction of ERalpha degradation in human MCF7 cells at 1 uM after 24 hrs by Western blot analysis; type: functional, cell-based
MCF7 [2] = assay: Induction of ERalpha degradation in human MCF7 cells at 200 uM after 24 hrs by Western blot analysis; type: functional, cell-based
[3] = target: Heat shock protein HSP 90-beta (Homo sapiens, UniProt P08238); assay: Inhibition of Hsp90 by FP ATP-site binding assay
Sequence of Heat shock protein HSP 90-beta (P08238 whole entry): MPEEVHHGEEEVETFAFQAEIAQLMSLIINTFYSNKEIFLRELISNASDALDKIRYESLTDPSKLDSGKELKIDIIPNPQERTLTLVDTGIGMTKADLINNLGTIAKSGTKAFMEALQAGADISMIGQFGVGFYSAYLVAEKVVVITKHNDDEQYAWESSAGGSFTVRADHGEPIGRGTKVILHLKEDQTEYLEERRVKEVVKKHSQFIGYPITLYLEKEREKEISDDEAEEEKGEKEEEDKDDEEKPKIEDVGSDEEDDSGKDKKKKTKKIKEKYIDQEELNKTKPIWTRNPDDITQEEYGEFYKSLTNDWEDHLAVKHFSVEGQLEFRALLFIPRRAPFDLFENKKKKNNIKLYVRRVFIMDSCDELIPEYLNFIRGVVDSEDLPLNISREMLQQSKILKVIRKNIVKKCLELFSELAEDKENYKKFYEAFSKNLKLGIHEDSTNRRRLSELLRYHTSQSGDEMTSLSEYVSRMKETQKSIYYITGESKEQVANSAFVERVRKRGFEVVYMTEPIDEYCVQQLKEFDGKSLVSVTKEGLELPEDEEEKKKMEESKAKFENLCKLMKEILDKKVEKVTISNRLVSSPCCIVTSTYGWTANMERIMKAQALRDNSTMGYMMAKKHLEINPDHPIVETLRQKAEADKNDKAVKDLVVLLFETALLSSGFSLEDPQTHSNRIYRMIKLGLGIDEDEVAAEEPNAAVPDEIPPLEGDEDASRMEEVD

Bos taurus = species: Bos taurus; assay: Inhibition of bovine tubulin polymerization

IC50 [3] [µM]	Activity (Bos taurus)	Structure (SMILES)	Activity (MCF7 [1])	Activity (MCF7 [2])
–	–	C=CCNC1=C2C[C@@H](C)C[C@H](OC)[C@H](O)[C@@H](C)/C=C(\C)[C@H](OC(N)=O)[C@@H](OC)/C=C\C=C(/C)C(=O)NC(=CC1=O)C2=O	Active	–
80.8	Dose-dependent effect	COc1cc(C(=O)n2ncc3cc(N)ccc32)cc(OC)c1OC	–	Active
